According to PubChem BioAssay AID330 (DTP/NCI, 2004):
Several values for one entry are separate records, joined by “and”; a condition that tells them apart may be missing. Equal entries are not always repeated. Inconclusive results and toxic doses are left out. The calls were made as follows: active = survival T/C of 150% or more; inactive = T/C below 125% in these data.

Test system: P388 leukemia ip, CD2F1 mice, survival T/C
Assay: NCI In Vivo Anticancer Drug Screen. Data for tumor model P388 Leukemia (intraperitoneal) in CD2F1 (CDF1) mice
Settings: endpoint: median survival time, higher = longer survival
Summary of the method: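 Mice carrying the transplanted tumor received test compound or vehicle. Survival was recorded in each group, and the value is the treated-group measurement divided by that of the vehicle-treated control group.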

[1] = dose: 50.0 mg/kg/injection, schedule: Q01DX005 (ip), vehicle: Klucel (hydroxypropylcellulose) (HPC)
[2] = dose: 100.0 mg/kg/injection, schedule: Q01DX005 (ip), vehicle: Klucel (hydroxypropylcellulose) (HPC)
[3] = dose: 200.0 mg/kg/injection, schedule: Q01DX005 (ip), vehicle: Klucel (hydroxypropylcellulose) (HPC)
[4] = dose: 50.0 mg/kg/injection, schedule: Q01DX009 (ip), vehicle: saline with Tween-80
[5] = dose: 100.0 mg/kg/injection, schedule: Q01DX009 (ip), vehicle: saline with Tween-80
[6] = dose: 200.0 mg/kg/injection, schedule: Q01DX009 (ip), vehicle: saline with Tween-80
[7] = dose: 12.5 mg/kg/injection, schedule: Q01DX009 (ip), vehicle: saline with Tween-80
[8] = dose: 25.0 mg/kg/injection, schedule: Q01DX009 (ip), vehicle: saline with Tween-80
[9] = dose: 100.0 mg/kg/injection, schedule: Q01DX005 (ip), vehicle: saline
[10] = dose: 100.0 mg/kg/injection, schedule: Q04DX002 (ip), vehicle: saline
[11] = dose: 200.0 mg/kg/injection, schedule: Q04DX002 (ip), vehicle: saline
[12] = dose: 400.0 mg/kg/injection, schedule: Q04DX002 (ip), vehicle: saline
[13] = dose: 50.0 mg/kg/injection, schedule: Q01DX005 (ip), vehicle: saline with Tween-80
[14] = dose: 100.0 mg/kg/injection, schedule: Q01DX005 (ip), vehicle: saline with Tween-80
[15] = dose: 400.0 mg/kg/injection, schedule: Q01DX009 (ip), vehicle: saline with Tween-80

Measured: T/C

C/C=C1\NC(=O)c2csc(n2)C(C(C)C)NC(=O)c2csc(n2)/C(=C/C)NC(=O)C(C(C)O)NC(=O)c2csc(n2)-c2ccc(-c3nc(-c4nc(C(=O)NC(C(=O)NCC(C)O)C(C)O)cs4)cs3)nc2-c2csc1n2 (stereo not given)
inactive: dose: 0.25 mg/kg/injection, schedule: Q01DX009 (ip), vehicle: Klucel (hydroxypropylcellulose) (HPC) 107 % of control | dose: 0.5 mg/kg/injection, schedule: Q01DX009 (ip), vehicle: Klucel (hydroxypropylcellulose) (HPC) 112 % of control | dose: 1.0 mg/kg/injection, schedule: Q01DX009 (ip), vehicle: Klucel (hydroxypropylcellulose) (HPC) 104 % of control | dose: 2.0 mg/kg/injection, schedule: Q01DX009 (ip), vehicle: Klucel (hydroxypropylcellulose) (HPC) 103 % of control

CC(C)N1CSC(=S)NCCNC(=S)SC1
inactive: [1] 101 % of control | [2] 110 % of control | [3] 110 % of control

CC1(C)CSC(=S)N1
inactive: dose: 2.5 mg/kg/injection, schedule: Q01DX009 (ip), vehicle: saline sonified 109 % of control | dose: 5.0 mg/kg/injection, schedule: Q01DX009 (ip), vehicle: saline sonified 100 % of control | dose: 10.0 mg/kg/injection, schedule: Q01DX009 (ip), vehicle: saline sonified 100 % of control

CCCCC(CC)CO.[Ti] (stereo not given)
inactive: [4] 90 % of control | dose: 50.0 mg/kg/injection, schedule: Q04DX003 (ip), vehicle: saline with Tween-80 100 % of control | [5] 109 % of control | dose: 100.0 mg/kg/injection, schedule: Q04DX003 (ip), vehicle: saline with Tween-80 100 % of control | [6] 100 % of control | dose: 200.0 mg/kg/injection, schedule: Q04DX003 (ip), vehicle: saline with Tween-80 100 % of control

O=C1OC(=O)c2ncccc21
inactive: dose: 6.25 mg/kg/injection, schedule: Q01DX009 (ip), vehicle: saline with Tween-80 101 % of control | [7] 96 % of control | [8] 101 % of control | [4] 111 % of control

C1CCN2COCC2C1 (stereo not given)
inactive: dose: 12.5 mg/kg/injection, schedule: Q01DX005 (ip), vehicle: saline 108 % of control | dose: 25.0 mg/kg/injection, schedule: Q01DX005 (ip), vehicle: saline 117 % of control | [9] 120 % of control and 122 % of control

CN(CCCNc1c2ccccc2nc2ccccc12)CCCNc1c2ccccc2nc2ccccc12
inactive: dose: 1.25 mg/kg/injection, schedule: Q01DX009 (ip), vehicle: other 115 % of control

CCOP(=O)(OCC)OC(C)CC1CO1 (stereo not given)
inactive: [10] 100 % of control | [11] 98 % of control | [12] 103 % of control

O=C1C2CCCN2C(=O)N1c1ccccc1 (stereo not given)
inactive: dose: 60.0 mg/kg/injection, schedule: Q01DX005 (ip), vehicle: Klucel (hydroxypropylcellulose) (HPC) 105 % of control | dose: 120.0 mg/kg/injection, schedule: Q01DX005 (ip), vehicle: Klucel (hydroxypropylcellulose) (HPC) 97 % of control | dose: 240.0 mg/kg/injection, schedule: Q01DX005 (ip), vehicle: Klucel (hydroxypropylcellulose) (HPC) 96 % of control

COc1ccc(/C=N\N=C(/[O-])c2ccc(Cl)cc2)cc1.COc1ccc(/C=N\N=C(/[O-])c2ccc(Cl)cc2)cc1.[Mn+2].[OH3+].[OH3+]
inactive: dose: 50.0 mg/kg/injection, schedule: Q04DX002 (ip), vehicle: saline with Tween-80 102 % of control | dose: 100.0 mg/kg/injection, schedule: Q04DX002 (ip), vehicle: saline with Tween-80 102 % of control | dose: 200.0 mg/kg/injection, schedule: Q04DX002 (ip), vehicle: saline with Tween-80 104 % of control

CC(C)(C)C(=O)NNc1cccc(Cl)n1
inactive: dose: 50.0 mg/kg/injection, schedule: Q01DX001 (ip), vehicle: Klucel (hydroxypropylcellulose) (HPC) 109 % of control | dose: 100.0 mg/kg/injection, schedule: Q01DX001 (ip), vehicle: Klucel (hydroxypropylcellulose) (HPC) 98 % of control | dose: 200.0 mg/kg/injection, schedule: Q01DX001 (ip), vehicle: Klucel (hydroxypropylcellulose) (HPC) 100 % of control

O=C(Nc1ccccc1)C1(C(=O)Nc2ccccc2)SSC(C(=O)Nc2ccccc2)(C(=O)Nc2ccccc2)SS1
inactive: [13] 107 % of control | [14] 96 % of control | dose: 200.0 mg/kg/injection, schedule: Q01DX005 (ip), vehicle: saline with Tween-80 89 % of control

C=CCOC(N)=O
inactive: [5] 100 % of control | [6] 101 % of control | [15] 101 % of control

CCC/C=C(\CC)COC(=O)Nc1ccccc1
inactive: [13] 86 % of control | [14] 100 % of control

CC(CC(C)C)=NC(C)CC(C)C (stereo not given)
inactive: dose: 50.0 mg/kg/injection, schedule: Q01DX005 (ip), vehicle: saline 97 % of control | [9] 95 % of control

O=C(CCc1nc2ccccc2[nH]1)C1Cc2ccccc2C1=O (stereo not given)
inactive: dose: 60.0 mg/kg/injection, schedule: Q01DX005 (ip), vehicle: saline with Tween-80 103 % of control | dose: 120.0 mg/kg/injection, schedule: Q01DX005 (ip), vehicle: saline with Tween-80 104 % of control | dose: 240.0 mg/kg/injection, schedule: Q01DX005 (ip), vehicle: saline with Tween-80 103 % of control

CC(C)(C)c1cc(C(O)(C(F)(F)F)C(F)(F)F)c2c(c1)C(C(F)(F)F)(C(F)(F)F)OS2(=O)=O
inactive: dose: 25.0 mg/kg/injection, schedule: Q01DX005 (ip), vehicle: Klucel (hydroxypropylcellulose) (HPC) 93 % of control | [1] 103 % of control | [2] 92 % of control | [3] 91 % of control

Fc1ccc(Nc2c3ccccc3nc3ccccc23)cc1
inactive: [7] 110 % of control | [8] 120 % of control

CNc1ncnc2ccc(Cl)cc12
inactive: dose: 50.0 mg/kg/injection, schedule: Q01DX009 (ip), vehicle: Klucel (hydroxypropylcellulose) (HPC) 93 % of control | dose: 100.0 mg/kg/injection, schedule: Q01DX009 (ip), vehicle: Klucel (hydroxypropylcellulose) (HPC) 102 % of control

CC1(C)C=Cc2cc3c(cc2O1)OC[C@H]1c2cc4c(cc2O[C@@H]31)OCO4
inactive: dose: 25.0 mg/kg/injection, schedule: Q04DX002 (ip), vehicle: Klucel (hydroxypropylcellulose) (HPC) 97 % of control | dose: 50.0 mg/kg/injection, schedule: Q04DX002 (ip), vehicle: Klucel (hydroxypropylcellulose) (HPC) 100 % of control | dose: 100.0 mg/kg/injection, schedule: Q04DX002 (ip), vehicle: Klucel (hydroxypropylcellulose) (HPC) 100 % of control | dose: 400.0 mg/kg/injection, schedule: Q04DX002 (ip), vehicle: Klucel (hydroxypropylcellulose) (HPC) 89 % of control

O=c1[nH][nH]c(O)c1-c1ccc(-c2c(O)[nH][nH]c2=O)cc1
inactive: [1] 105 % of control | [2] 105 % of control | [3] 101 % of control

O=C(C1=CCCCC1)c1ccc(-c2ccccc2)cc1
inactive: [5] 100 % of control | [6] 100 % of control | [15] 100 % of control

NC1CCc2cc(O)c(O)cc2C1 (stereo not given)
inactive: [10] 108 % of control and 96 % of control | [11] 105 % of control and 109 % of control | [12] 109 % of control
